Like-named read-outs stand apart in the source and are kept apart here.
Experiments:
[1] = test system: cytokines in BAL fluid; assay: Cytokines in BAL fluid of OVA sensitized and challenged mice (multiplex ELISA); format: in vivo, BALB/c mice; conditions: Dex 4.0 mg/kg/day, Nad 250 ppm, 24 h after last OVA challenge
From the text: (§1) Six-week to eight-week-old BALB/c mice (Jackson Animal Laboratory, Bar Harbor, Me.) were housed under specific pathogen-free conditions.
(§2) Mice were immunized against allergen by means of sensitization (once weekly intraperitoneal injection on days 0, 7, and 14) and challenge (once daily intranasal instillation for 5 days on days 41-45) with ovalbumin (OVA) as described (FIG. 1) (19).
(§3) Untreated sensitized and challenged mice or mice that had not undergone the sensitization and challenge process, received vehicle and were fed with normal mouse chow. […] Experimental mice were sacrificed on day 46.
The supernatants from brochoalveolar lavage samples, collected 24 hours after the last challenge with OVA, were provided to Pierce Searchlight, Aushon BioSystems, Inc. in blinded fashion. The concentrations of eotaxin, macrophage-derived chemokine (MDC), thymus and activation regulated chemokine (TARC), interleukin (IL)-1α, IL-5, IL-6, IL-12p70, IL-13, IL-17, IL-23, interferon (IFN), tumor necrosis factor alpha (TNF-a) and transforming growth factor beta (TGF-β1) were measured using multiplex enzyme-linked immunosorbent assay.
Definition of abbreviations in Table 1 are Th1/2/17=T helper (1, 2, or 17) type inflammation; MDC=macrophage-derived chemokine; TARC=thymus and activation regulated chemokine; IL=interleukin-1a, IL-5, IL-6, IL-12p70, IL-13, IL-17, IL-23; IFNγ=interferon gamma; TNFα=tumor necrosis factor alpha; TGFβ1=transforming growth factor betal. The percentage from No Rx is in comparison to No OVA for each cytokine, while percentage of each drug treatment group [Dex (4.0 mg/kg/day); Nad (250 ppm); and Dex+Nad (0.4 mg/kg/day+25 ppm)] is in comparison to No Rx. Values are the means±SEM of data from 4 mice in each group (n=4); and *, indicate significant difference compared to No Rx, P<0.05.

[2] = test system: mucin content in the airway epithelium; assay: Airway epithelial mucin content (PAFS staining, mucin volume density) in OVA sensitized and challenged mice; format: in vivo, BALB/c mice; conditions: for reduction in mucin content: high dose: dexamethasone 4 mg/kg/day
From the text: as §1, §2, §3
Lungs were perfused with 4% paraformaldehyde in PBS (pH 7.0) via a tracheal cannula at room temperature, then removed from the thoracic cavity and further fixed overnight at 4° C. (25). After overnight fixation, lungs were embedded in paraffin and then sectioned and stained with periodic acid fluorescent Schiff's (PAFS) reagent to examine intracellular mucin. Tissue sections were examined under a 40× objective and images (MagnaFire 2.1 Optronics) were acquired prior to any measurements and analyzed (ImagePro Plus) by blinded investigators (25).

[3] = test system: BAL eosinophils; assay: BAL eosinophil numbers in OVA sensitized and challenged mice; format: in vivo, BALB/c mice
From the text: as §1, §2, §3
Brochoalveolar lavage (BAL) fluid was acquired via infusion and recovery of cold PBS (2×1 ml) through the tracheal cannula from euthanized (pentobarbital 0.1 ml of 65 mg/ml) mice. Brochoalveolar lavage total leukocyte count and differentiated cell counts were performed as described (19).
Leukocytes and cytokines were measured in BAL fluid of OVA-sensitized mice 24 hours after the last of five daily nasal challenges with OVA (FIG. 1).

[4] = test system: mucin content; conditions: previous study (19), cited from earlier work
[5] = test system: airway hyperresponsiveness; conditions: mild asthmatics, dose escalation protocol; cited from earlier work
[6] = intermediate doses: dexamethasone 0.4 mg/kg/day IP 8 days, nadolol 25 ppm in chow 28 days, BAL 24 h after last OVA challenge
[7] = low doses: dexamethasone 0.1 mg/kg/day IP 8 days, nadolol 5 ppm in chow 28 days, BAL 24 h after last OVA challenge

C[C@@H]1C[C@H]2[C@@H]3CCC4=CC(=O)C=C[C@]4(C)[C@@]3(F)[C@@H](O)C[C@]2(C)[C@@]1(O)C(=O)CO [dexamethasone]
IFNg, percentage in comparison to No Rx [1]: (1500%)
IL-1a, percentage in comparison to No Rx [1]: (233%)*
IL-5, percentage in comparison to No Rx [1]: (30%)*
IL-6, percentage in comparison to No Rx [1]: (163%)
IL-12p70, percentage in comparison to No Rx [1]: (180%)
IL-13, percentage in comparison to No Rx [1]: (27%)*
IL-17, percentage in comparison to No Rx [1]: (0) %
IL-23, percentage in comparison to No Rx [1]: (200%)
MDC, percentage in comparison to No Rx [1]: (5%)*
TARC, percentage in comparison to No Rx [1]: (15%)*
TGFβ1, percentage in comparison to No Rx [1]: (35%)*
TNFa, percentage in comparison to No Rx [1]: (23%)*
eotaxin, percentage in comparison to No Rx [1]: (27%)*
IFNg level in BAL fluid ([1]; mean ± SEM, n=4): 90 ± 1.1 pg/mL
IL-1a level in BAL fluid ([1]; mean ± SEM, n=4): 35 ± 7.1 pg/mL
IL-5 level in BAL fluid ([1]; mean ± SEM, n=4): 63 ± 19.3 pg/mL
IL-6 level in BAL fluid ([1]; mean ± SEM, n=4): 39 ± 28.2 pg/mL
IL-12p70 level in BAL fluid ([1]; mean ± SEM, n=4): 9 ± 1.3 pg/mL
IL-13 level in BAL fluid ([1]; mean ± SEM, n=4): 12 ± 5.0 pg/mL
IL-17 level in BAL fluid ([1]; mean ± SEM, n=4): 2 ± 0.4 pg/mL
IL-23 level in BAL fluid ([1]; mean ± SEM, n=4): 74 ± 10.0 pg/mL
MDC level in BAL fluid ([1]; mean ± SEM, n=4): 10 ± 1.0 pg/mL
TARC level in BAL fluid ([1]; mean ± SEM, n=4): 475 ± 47.0 pg/mL
TGFβ1 level in BAL fluid ([1]; mean ± SEM, n=4): 4675 ± 792 pg/mL
TNFa level in BAL fluid ([1]; mean ± SEM, n=4): 14 ± 1.0 pg/mL
eotaxin level in BAL fluid ([1]; mean ± SEM, n=4): 12 ± 2.0 pg/mL
reduction in mucin content ([2]; nadolol 250 ppm): 72%
reduction in eosinophils ([3]; high-dose dexamethasone 4.0 mg/kg/day IP 8 days): 89%
reduction in eosinophils [3, 6]: 58%
reduction in eosinophils [3, 7]: 36%

CC(C)(C)NCC(O)COc1cccc2c1CC(O)C(O)C2 (stereo not shown) [nadolol]
reduction in mucin content ([4]; 7 days of treatment with nadolol): very modest reduction
reduction in mucin content ([4]; 28 days of treatment with nadolol): ~90%
IL-1a, percentage in comparison to No Rx [1]: (73%)
IL-5, percentage in comparison to No Rx [1]: (56%)*
IL-6, percentage in comparison to No Rx [1]: (88%)
IL-12p70, percentage in comparison to No Rx [1]: (140%)
IL-13, percentage in comparison to No Rx [1]: (13%)*
IL-17, percentage in comparison to No Rx [1]: (50%)
IL-23, percentage in comparison to No Rx [1]: (76%)
MDC, percentage in comparison to No Rx [1]: (27%)*
TARC, percentage in comparison to No Rx [1]: (19%)*
TGFβ1, percentage in comparison to No Rx [1]: (45%)*
TNFa, percentage in comparison to No Rx [1]: (53%)*
eotaxin, percentage in comparison to No Rx [1]: (80%)
IFNg level in BAL fluid ([1]; mean ± SEM, n=4): 7 ± 1.1 pg/mL
IL-1a level in BAL fluid ([1]; mean ± SEM, n=4): 11 ± 5.0 pg/mL
IL-5 level in BAL fluid ([1]; mean ± SEM, n=4): 118 ± 33.0 pg/mL
IL-6 level in BAL fluid ([1]; mean ± SEM, n=4): 21 ± 10.0 pg/mL
IL-12p70 level in BAL fluid ([1]; mean ± SEM, n=4): 7 ± 1.0 pg/mL
IL-13 level in BAL fluid ([1]; mean ± SEM, n=4): 6 ± 2.0 pg/mL
IL-17 level in BAL fluid ([1]; mean ± SEM, n=4): 1 ± 0.2 pg/mL
IL-23 level in BAL fluid ([1]; mean ± SEM, n=4): 28 ± 4.3 pg/mL
TARC level in BAL fluid ([1]; mean ± SEM, n=4): 593 ± 223.5 pg/mL
TGFβ1 level in BAL fluid ([1]; mean ± SEM, n=4): 5891 ± 710 pg/mL
TNFa level in BAL fluid ([1]; mean ± SEM, n=4): 33 ± 8.0 pg/mL
eotaxin level in BAL fluid ([1]; mean ± SEM, n=4): 36 ± 6.0 pg/mL
change in mucin content ([2]; all doses of chronic nadolol (5, 25, 250 ppm)): significant decreases
reduction in mucin content ([2]; nadolol 250 ppm): 86%
mucin volume density after 7 days of treatment vs vehicle treated control mice ([2]; nadolol 250 ppm, 7 days): significant reductions
day at which maximal effect on mucin volume density is achieved ([2]; nadolol 250 ppm, time course): 22 days
airway hyperresponsiveness [5]: reduction in airway hyperresponsiveness
reduction in eosinophils [3, 6]: 36%
reduction in eosinophils [3, 7]: 20%
maximal reductions in airway eosinophilia from OVA S/C ([3]; nadolol 250 ppm, detected at day 7 of treatment): ~50%
